Results published in PubChem BioAssay (NCI).
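48-hour exposure; five concentrations; linearly interpolated endpoints. At the GI50, growth is halved. TGI: concentration producing complete growth inhibition.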

Key:
Experiment in all cases: NCI tumour cell line growth inhibition, 48 h
[1] = tested on: DU-145 prostate
[2] = tested on: T-47D breast
[3] = tested on: IGROV1 ovarian
[4] = tested on: SK-OV-3 ovarian
[5] = tested on: MDA-MB-231 breast
[6] = tested on: UACC-62 melanoma
[7] = tested on: CAKI-1 renal
[8] = tested on: EKVX NSCLC
[9] = tested on: A549 NSCLC
[10] = tested on: SNB-19 CNS
[11] = tested on: OVCAR-8 ovarian
[12] = tested on: HCT-15 colon
[13] = tested on: NCI-H460 lung
[14] = tested on: MALME-3M melanoma
[15] = tested on: NCI/ADR-RES ovarian
[16] = tested on: SW-620 colon
[17] = tested on: HCC-2998 colon
[18] = tested on: A498 renal
[19] = tested on: OVCAR-3 ovarian
[20] = tested on: M14 melanoma
[21] = tested on: PC-3 prostate
[22] = tested on: TK-10 renal
[23] = tested on: MCF7 breast
[24] = tested on: HS 578T breast
[25] = tested on: NCI-H522 lung
[26] = tested on: HOP-62 NSCLC
[27] = tested on: SF-295 CNS
[28] = tested on: SF-268 CNS
[29] = tested on: HL-60(TB) leukemia
[30] = tested on: SNB-75 CNS
[31] = tested on: UACC-257 melanoma
[32] = tested on: SK-MEL-5 melanoma
[33] = tested on: SR leukemia
[34] = tested on: SK-MEL-28 melanoma
[35] = tested on: HCT-116 colon
[36] = tested on: OVCAR-5 ovarian
[37] = tested on: HOP-92 NSCLC
[38] = tested on: RXF 393 renal
[39] = tested on: CCRF-CEM leukemia
[40] = tested on: NCI-H23 lung
[41] = tested on: SK-MEL-2 melanoma
[42] = tested on: SN12C renal
[43] = tested on: COLO 205 colon
[44] = tested on: ACHN renal
[45] = tested on: LOX IMVI melanoma
[46] = tested on: KM12 colon
[47] = tested on: BT-549 breast
[48] = tested on: UO-31 renal
[49] = tested on: RPMI-8226 leukemia
[50] = tested on: U251 CNS
[51] = tested on: 786-0 renal
[52] = tested on: K-562 leukemia
[53] = tested on: HT29 colon
[54] = tested on: MDA-MB-435
[55] = tested on: MOLT-4 leukemia
[56] = tested on: SF-539 CNS
[57] = tested on: NCI-H226 lung

## CC(C)(C)c1ccc(CC(=O)Nc2sc3c(c2C(N)=O)CCC(=O)C3)cc1
[1]
  GI50: 3.17 µM
  TGI: 14 µM
[2]
  GI50: 0.368 µM
  TGI: 2.67 µM
[3]
  GI50: 0.532 µM
  TGI: 3.1 µM
[4]
  GI50: 2.77 µM
  TGI: 8.04 µM
[5]
  GI50: 1.17 µM
  TGI: 3.29 µM
[6]
  GI50: 0.54 µM
  TGI: 2.07 µM
[7]
  GI50: 0.395 µM
  TGI: 3.01 µM
[8]
  GI50: 0.549 µM
  TGI: 3.54 µM
[9]
  GI50: 1.99 µM
  TGI: 6.92 µM
[10]
  GI50: 1.09 µM
  TGI: 4.69 µM
[11]
  GI50: 0.458 µM
  TGI: 24.7 µM
[12]
  GI50: 0.295 µM
  TGI: 2.11 µM
[13]
  GI50: 1.03 µM
  TGI: 8.06 µM
[14]
  GI50: 0.692 µM
  TGI: 2.35 µM
[15]
  GI50: 0.621 µM
  TGI: 5.11 µM
[16]
  GI50: 0.386 µM
  TGI: 2.16 µM
[17]
  GI50: 1.49 µM
  TGI: 3.88 µM
[18]
  GI50: 2.05 µM
  TGI: 6.97 µM
[19]
  GI50: 0.541 µM
  TGI: 2.09 µM
[20]
  GI50: 0.435 µM
  TGI: 2.69 µM
[21]
  GI50: 0.207 µM
  TGI: 1.9 µM
[22]
  GI50: 0.473 µM
  TGI: 8.48 µM
[23]
  GI50: 0.433 µM
  TGI: 6.66 µM
[24]
  GI50: 1.98 µM
  TGI: 10.9 µM
[25]
  GI50: 0.283 µM
  TGI: 2.59 µM
[26]
  GI50: 2.69 µM
  TGI: 13.2 µM
[27]
  GI50: 1.18 µM
  TGI: 3.18 µM
[28]
  GI50: 2.82 µM
  TGI: 12.7 µM
[29]
  GI50: 0.423 µM
  TGI: 3.11 µM
[30]
  GI50: 1.3 µM
  TGI: 4.28 µM
[31]
  GI50: 2.04 µM
  TGI: 5.86 µM
[32]
  GI50: 1.23 µM
  TGI: 2.58 µM
[33]
  GI50: 0.132 µM
[34]
  GI50: 1.38 µM
  TGI: 3.16 µM
[35]
  GI50: 0.26 µM
  TGI: 1.29 µM
[36]
  GI50: 0.901 µM
  TGI: 2.99 µM
[37]
  GI50: 0.464 µM
  TGI: 1.85 µM
[38]
  GI50: 0.594 µM
  TGI: 1.98 µM
[39]
  GI50: 0.137 µM
  TGI: 3.62 µM
[40]
  GI50: 0.34 µM
  TGI: 3.59 µM
[41]
  GI50: 2.29 µM
  TGI: 6.64 µM
[42]
  GI50: 1.04 µM
  TGI: 3.91 µM
[43]
  GI50: 1.33 µM
  TGI: 3.02 µM
[44]
  GI50: 0.374 µM
  TGI: 1.31 µM
[45]
  GI50: 0.46 µM
  TGI: 3.41 µM
[46]
  GI50: 0.88 µM
  TGI: 3.16 µM
[47]
  GI50: 0.48 µM
  TGI: 2.4 µM
[48]
  GI50: 0.43 µM
  TGI: 1.68 µM
[49]
  GI50: 0.221 µM
  TGI: 0.691 µM
[50]
  GI50: 0.389 µM
  TGI: 2.25 µM
[51]
  GI50: 1.39 µM
  TGI: 11.8 µM
[52]
  GI50: 0.233 µM
  TGI: 4.94 µM
[53]
  GI50: 0.871 µM
  TGI: 8.43 µM
[54]
  GI50: 1.3 µM
  TGI: 4.21 µM
[55]
  GI50: 0.569 µM
  TGI: 8.21 µM
[56]
  GI50: 0.421 µM
  TGI: 1.67 µM
[57]
  GI50: 1.7 µM
  TGI: 4.14 µM
